Experimental data as given in PMC10814857, “Functional Classification and Interaction Selectivity Landscape of the Human SH3 Domain Superfamily” (Cells, 2024).
Peptide text beside a SMILES is read from it.

Experiments:
Test in all cases: Fluorescence polarization SH3 domain-PRP binding
[1] = biological target: T1, ITSN1-4 SH3 domain (aa 1070-1138) (Homo sapiens, UniProt Q15811); settings: FP, 0.2 µM fluorescein-labeled peptide, SH3 domain 0-200 µM, Tris/HCl pH 7.5, 25 °C, quadratic fit
T1 construct: 1070-1138; GST (N); made in house; host or cells: Escherichia coli CodonPlus, Rosetta, BL21(DE3)
T1 sequence (Q15811 1070-1138): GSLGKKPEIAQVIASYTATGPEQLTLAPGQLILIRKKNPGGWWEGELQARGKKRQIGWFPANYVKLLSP
Experimental: (§1) The interaction between fluorescein-labeled proline-rich peptides (0.2 µM) and increasing concentrations of SH3 domains (ranging from 0 to 200 µM) was measured in a buffer (containing 30 mM Tris/HCl (pH 7.5), 5 mM MgCl2, and 3 mM DTT at 25 °C) in a total volume of 200 µL using a Fluoromax 4 fluorimeter in polarization mode and a quartz glass fluorescence cuvette (Hellma Ultra-Micro Cuvette 105.250-QS, Thermo Fisher Scientific, Waltham, MA USA). Excitation was performed at 470 nm and emission was measured at 560 nm. Dissociation constants (Kd) were determined by fitting the concentration-dependent binding curve to a quadratic ligand binding equation.
(§2) Fluorescence polarization measurements were performed to determine the binding affinities of SH3 domain–PRP interaction pairs from the dot blot analysis. SH3 proteins were titrated at increasing concentrations against fluorescent PRPs, which were kept at a constant concentration of 0.2 µM. GRB2-2^W193K, which is defective in the binding of PRPs such as RP1, was used as a negative control as previously described. […] The resulting data (Figure S6) allowed the evaluation of equilibrium dissociation constants (Kd) for 45 interactions between the SH3 domains and the PRPs (Figure 2B; Table S6).
(§3) Figure S6. Interactions of the SH3 domains with fluorescent PRPs measured by fluorescence polarization.
(§4) Fluorescent peptides (0.2 µM) were titrated with increasing concentrations of the corresponding SH3 domains.
(§5) GRB2-2W193K, defective in the binding of PRPs such as RP1, was used as a negative control as previously described. The x-axis represents SH3 domain concentrations as GST fusion proteins in µM, while the y-axis represents fluorescence polarization. The equilibrium dissociation constants (Kd) for the respective measurements were determined by fitting the titration curves to a quadratic ligand-binding equation (solid lines). All Kd values are […]
(§6) Error bars are derived from the fitting errors.

[2] = biological target: T2, SH3GLB1 SH3 domain (aa 305-365) (Homo sapiens, UniProt Q9Y371); settings: FP, 0.2 µM fluorescein-labeled peptide, SH3 domain 0-200 µM, Tris/HCl pH 7.5, 25 °C, quadratic fit
T2 construct: 305-365; GST (N); made in house; host or cells: Escherichia coli CodonPlus, Rosetta, BL21(DE3)
T2 sequence (Q9Y371 305-365): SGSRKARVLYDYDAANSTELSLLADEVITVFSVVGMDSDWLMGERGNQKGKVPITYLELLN
Experimental: as §1, §2, §3, §4, §5, §6

[3] = biological target: T3, SORBS1-1 SH3 domain (aa 793-852) (Homo sapiens, UniProt Q9BX66); settings: FP, 0.2 µM fluorescein-labeled peptide, SH3 domain 0-200 µM, Tris/HCl pH 7.5, 25 °C, quadratic fit
T3 construct: 793-852; GST (N); made in house; host or cells: Escherichia coli CodonPlus, Rosetta, BL21(DE3)
T3 sequence (Q9BX66 793-852): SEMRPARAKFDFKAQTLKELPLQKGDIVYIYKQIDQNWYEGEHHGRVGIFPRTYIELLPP
Experimental: as §1, §2, §3, §4, §5, §6

[4] = biological target: T4, NCK1-3 SH3 domain (aa 190–252) (Homo sapiens, UniProt P16333); settings: NCK1-3 (wt); FP, 0.2 µM fluorescein-labeled peptide, SH3 domain 0-200 µM, Tris/HCl pH 7.5, 25 °C, quadratic fit; read-out: Kd
T4 construct: 190–252; GST (N); made in house; host or cells: Escherichia coli CodonPlus, Rosetta, BL21(DE3)
Experimental: as §1, §2, §3, §4, §5, §6

[5] = biological target: T5, NCK1-2 SH3 domain (aa 106-165) (Homo sapiens, UniProt P16333); settings: FP, 0.2 µM fluorescein-labeled peptide, SH3 domain 0-200 µM, Tris/HCl pH 7.5, 25 °C, quadratic fit, read-out: Kd
T5 construct: 106-165; GST (N); made in house; host or cells: Escherichia coli CodonPlus, Rosetta, BL21(DE3)
Experimental: as §1, §2, §3, §4, §5, §6

NPHP1 SH3 domain = biological target: T6, NPHP1 SH3 domain (Homo sapiens, UniProt O15259); settings: FP, 0.2 µM fluorescein-labeled peptide, SH3 domain 0-200 µM, Tris/HCl pH 7.5, 25 °C, quadratic fit
T6 construct: GST (N); made in house; host or cells: Escherichia coli CodonPlus, Rosetta, BL21(DE3)
T6 sequence (O15259 152-212 limits assumed): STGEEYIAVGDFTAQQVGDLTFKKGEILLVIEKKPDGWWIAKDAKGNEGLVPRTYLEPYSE
Experimental: as §1, §2, §3, §4, §5, §6

[6] = biological target: T7, SH3PXD2A-1 SH3 domain (aa 166-225) (Homo sapiens, UniProt Q5TCZ1); settings: FP, 0.2 µM fluorescein-labeled peptide, SH3 domain 0-200 µM, Tris/HCl pH 7.5, 25 °C, quadratic fit
T7 construct: 166-225; GST (N); made in house; host or cells: Escherichia coli CodonPlus, Rosetta, BL21(DE3)
T7 sequence (Q5TCZ1 166-225): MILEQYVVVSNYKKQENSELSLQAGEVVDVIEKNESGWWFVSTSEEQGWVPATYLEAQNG
Experimental: as §1, §2, §3, §4, §5, §6

[7] = biological target: T8, RASA1 SH3 domain (aa 279–341) (Homo sapiens, UniProt P20936); settings: FP, 0.2 µM fluorescein-labeled peptide, SH3 domain 0-200 µM, Tris/HCl pH 7.5, 25 °C, quadratic fit
T8 construct: 279–341; GST (N); made in house; host or cells: Escherichia coli CodonPlus, Rosetta, BL21(DE3)
T8 sequence (P20936 279-341): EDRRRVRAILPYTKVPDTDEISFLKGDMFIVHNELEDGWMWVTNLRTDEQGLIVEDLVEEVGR
Experimental: as §1, §2, §3, §4, §5, §6

[8] = biological target: T9, SRC SH3 domain (aa 77-140) (Homo sapiens, UniProt P12931); settings: FP, 0.2 µM fluorescein-labeled peptide, SH3 domain 0-200 µM, Tris/HCl pH 7.5, 25 °C, quadratic fit
T9 construct: 77-140; GST (N); made in house; host or cells: Escherichia coli CodonPlus, Rosetta, BL21(DE3)
T9 sequence (P12931 77-140 limits assumed): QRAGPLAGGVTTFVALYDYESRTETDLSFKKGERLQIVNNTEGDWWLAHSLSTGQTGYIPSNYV
Experimental: as §1, §2, §3, §4, §5, §6

[9] = biological target: T10, RIMBP3B-1 SH3 domain (aa 832-899) (Homo sapiens, UniProt A6NNM3); settings: FP, 0.2 µM fluorescein-labeled peptide, SH3 domain 0-200 µM, Tris/HCl pH 7.5, 25 °C, quadratic fit
T10 construct: 832-899; GST (N); made in house; host or cells: Escherichia coli CodonPlus, Rosetta, BL21(DE3)
T10 sequence (A6NNM3 832-899): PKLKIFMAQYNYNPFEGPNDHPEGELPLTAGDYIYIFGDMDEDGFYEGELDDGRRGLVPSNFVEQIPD
Experimental: as §1, §2, §3, §4, §5, §6

[10] = biological target: T11, SNX9 SH3 domain (aa 1-62) (Homo sapiens, UniProt Q9Y5X1); settings: FP, 0.2 µM fluorescein-labeled peptide, SH3 domain 0-200 µM, Tris/HCl pH 7.5, 25 °C, quadratic fit
T11 construct: 1-62; GST (N); made in house; host or cells: Escherichia coli CodonPlus, Rosetta, BL21(DE3)
T11 sequence (Q9Y5X1 1-62): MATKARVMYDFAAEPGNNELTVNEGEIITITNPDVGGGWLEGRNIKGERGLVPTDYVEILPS
Experimental: as §1, §2, §3, §4, §5, §6

[11] = biological target: T12, ITSN1-5 SH3 domain (aa 1155-1214) (Homo sapiens, UniProt Q15811); settings: FP, 0.2 µM fluorescein-labeled peptide, SH3 domain 0-200 µM, Tris/HCl pH 7.5, 25 °C, quadratic fit
T12 construct: 1155-1214; GST (N); made in house; host or cells: Escherichia coli CodonPlus, Rosetta, BL21(DE3)
T12 sequence (Q15811 1155-1214): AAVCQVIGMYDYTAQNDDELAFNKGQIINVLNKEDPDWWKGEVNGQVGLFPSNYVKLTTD
Experimental: as §1, §2, §3, §4, §5, §6

SMILES | Kd [1] [µM] | Kd [2] [µM] | Kd [3] [µM] | Kd [4] [µM] | Kd [5] [µM] | Kd (NPHP1 SH3 domain) [µM] | Kd [6] [µM] | Kd [7] [µM] | Kd [8] [µM] | Kd [9] [µM] | Kd [10] [µM] | Kd [11] [µM]
CC(C)C[C@H](NC(=O)[C@H](Cc1c[nH]cn1)NC(=O)[C@H](CC(C)C)NC(=O)[C@@H]1CCCN1C(=O)[C@H](CO)NC(=O)[C@H](CO)NC(=O)[C@@H](N)CO)C(=O)N[C@@H](CCC(N)=O)C(=O)N1CCC[C@H]1C(=O)N1CCC[C@H]1C(=O)N1CCC[C@H]1C(=O)N[C@@H](CC(C)C)C(=O)NCC(=O)N[C@@H](CCCCN)C(=O)N[C@@H](CCCCN)C(=O)O [Peptide P6] (H-SSSPLHLQPPPLGKK-OH; N-terminus and C-terminus assumed) | > 200 | > 200 | > 200 | > 200 | > 200 | > 200 | > 200 | > 200 | > 200 | > 200 | > 200 | > 200
CC(C)C[C@H](NC(=O)[C@@H]1CCCN1C(=O)[C@@H](NC(=O)[C@H](CCCNC(=N)N)NC(=O)[C@@H]1CCCN1C(=O)[C@H](CO)NC(=O)[C@H](CC(N)=O)NC(=O)[C@@H]1CCCN1C(=O)[C@H](C)NC(=O)[C@@H](N)CO)[C@@H](C)O)C(=O)N[C@H](C(=O)N1CCC[C@H]1C(=O)N1CCC[C@H]1C(=O)N1CCC[C@H]1C(=O)N[C@@H](C)C(=O)N[C@@H](CO)C(=O)O)[C@@H](C)O [Peptide P1] (H-SAPNSPRTPLTPPPAS-OH) | > 200 | > 200 | > 200 | > 200 | > 200 | > 200 | > 200 | > 200 | > 200 | > 200 | > 200 | 23
C[C@H](N)C(=O)N[C@@H](Cc1ccccc1)C(=O)N[C@@H](Cc1ccccc1)C(=O)N1CCC[C@H]1C(=O)N[C@@H](CC(N)=O)C(=O)N[C@@H](CO)C(=O)N1CCC[C@H]1C(=O)N[C@@H](CO)C(=O)N1CCC[C@H]1C(=O)N[C@@H](Cc1ccccc1)C(=O)N[C@H](C(=O)N1CCC[C@H]1C(=O)N1CCC[C@H]1C(=O)N1CCC[C@H]1C(=O)N1CCC[C@H]1C(=O)N[C@@H](CCC(N)=O)C(=O)N[C@H](C(=O)N1CCC[C@H]1C(=O)N[C@@H](CO)C(=O)N1CCC[C@H]1C(=O)N[C@@H](Cc1c[nH]cn1)C(=O)NCC(=O)N[C@H](C(=O)O)[C@@H](C)O)[C@@H](C)O)[C@@H](C)O [Peptide P7] (H-AFFPNSPSPFTPPPPQTPSPHGT-OH) | > 200 | > 200 | 13.2 | > 200 | > 200 | > 200 | > 200 | > 200 | 13.3 | 15 | > 200 | > 200

The next lines start with the values.

Kd [1] [µM] | Kd [2] [µM] | Kd [3] [µM] | Kd [4] [µM] | Kd [5] [µM] | Kd (NPHP1 SH3 domain) [µM] | Kd [6] [µM] | Kd [7] [µM] | Kd [8] [µM] | Kd [9] [µM] | Kd [10] [µM] | Kd [11] [µM] | SMILES
> 200 | > 200 | > 200 | 2.5 | 1 | > 200 | 21 | > 200 | > 200 | > 200 | > 200 | 23 | CC(C)[C@H](NC(=O)[C@@H]1CCCN1C(=O)[C@@H]1CCCN1C(=O)[C@H](C)NC(=O)[C@H](CCC(=O)O)NC(=O)[C@H](CS)NC(=O)[C@@H](N)CCCNC(=N)N)C(=O)N1CCC[C@H]1C(=O)N1CCC[C@H]1C(=O)N[C@@H](CCCNC(=N)N)C(=O)N[C@@H](CCCNC(=N)N)C(=O)N[C@@H](CCC(=O)O)C(=O)N[C@@H](CCCNC(=N)N)C(=O)NCC(=O)O [RP2, reference compound] (H-RCEAPPVPPRRERG-OH)
> 200 | > 200 | > 200 | > 200 | > 200 | > 200 | > 200 | > 200 | > 200 | > 200 | > 200 | > 200 | CC(C)C[C@H](NC(=O)[C@@H]1CCCN1C(=O)[C@@H]1CCCN1C(=O)[C@H](CO)NC(=O)[C@@H]1CCCN1C(=O)[C@H](CC(C)C)NC(=O)[C@H](Cc1c[nH]cn1)NC(=O)[C@@H](N)CCCNC(=N)N)C(=O)N[C@H](C(=O)N[C@@H](CCC(N)=O)C(=O)O)[C@@H](C)O [Peptide P8] (H-RHLPSPPLTQ-OH; N-terminus and C-terminus assumed)
